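Test compounds were applied to cells in 96-well plates for 48 hours at 5 doses. At the GI50, growth is halved. TGI denotes the concentration required for complete inhibition of growth.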
Legend:
Experiment in all cases: NCI tumour cell line growth inhibition, 48 h
786-0 renal = tested on: 786-0 renal
A498 renal = tested on: A498 renal
A549 NSCLC = tested on: A549 NSCLC
ACHN renal = tested on: ACHN renal
BT-549 breast = tested on: BT-549 breast
CAKI-1 renal = tested on: CAKI-1 renal
CCRF-CEM leukemia = tested on: CCRF-CEM leukemia
COLO 205 colon = tested on: COLO 205 colon
DU-145 prostate = tested on: DU-145 prostate
HCC-2998 colon = tested on: HCC-2998 colon
HCT-116 colon = tested on: HCT-116 colon
HCT-15 colon = tested on: HCT-15 colon
HL-60(TB) leukemia = tested on: HL-60(TB) leukemia
HOP-62 NSCLC = tested on: HOP-62 NSCLC
HOP-92 NSCLC = tested on: HOP-92 NSCLC
HT29 colon = tested on: HT29 colon
IGROV1 ovarian = tested on: IGROV1 ovarian
K-562 leukemia = tested on: K-562 leukemia
KM12 colon = tested on: KM12 colon
LOX IMVI melanoma = tested on: LOX IMVI melanoma
M14 melanoma = tested on: M14 melanoma
MALME-3M melanoma = tested on: MALME-3M melanoma
MCF7 breast = tested on: MCF7 breast
MDA-MB-231 breast = tested on: MDA-MB-231 breast
MOLT-4 leukemia = tested on: MOLT-4 leukemia
NCI-H226 lung = tested on: NCI-H226 lung
NCI-H23 lung = tested on: NCI-H23 lung
NCI-H460 lung = tested on: NCI-H460 lung
NCI-H522 lung = tested on: NCI-H522 lung
NCI/ADR-RES ovarian = tested on: NCI/ADR-RES ovarian
OVCAR-3 ovarian = tested on: OVCAR-3 ovarian
OVCAR-4 ovarian = tested on: OVCAR-4 ovarian
OVCAR-5 ovarian = tested on: OVCAR-5 ovarian
OVCAR-8 ovarian = tested on: OVCAR-8 ovarian
PC-3 prostate = tested on: PC-3 prostate
RPMI-8226 leukemia = tested on: RPMI-8226 leukemia
RXF 393 renal = tested on: RXF 393 renal
SF-268 CNS = tested on: SF-268 CNS
SF-295 CNS = tested on: SF-295 CNS
SF-539 CNS = tested on: SF-539 CNS
SK-MEL-2 melanoma = tested on: SK-MEL-2 melanoma
SK-MEL-28 melanoma = tested on: SK-MEL-28 melanoma
SK-MEL-5 melanoma = tested on: SK-MEL-5 melanoma
SK-OV-3 ovarian = tested on: SK-OV-3 ovarian
SN12C renal = tested on: SN12C renal
SNB-19 CNS = tested on: SNB-19 CNS
SNB-75 CNS = tested on: SNB-75 CNS
SR leukemia = tested on: SR leukemia
SW-620 colon = tested on: SW-620 colon
T-47D breast = tested on: T-47D breast
U251 CNS = tested on: U251 CNS
UACC-257 melanoma = tested on: UACC-257 melanoma
UACC-62 melanoma = tested on: UACC-62 melanoma
UO-31 renal = tested on: UO-31 renal

O=C1Nc2ccc(Br)cc2C12CC(c1ccccc1)=NN2 (stereo not drawn)
GI50 (786-0 renal): 5.66 µM
TGI (786-0 renal): 48.5 µM
GI50 (A498 renal): 2240 nM
TGI (A498 renal): 8.38 µM
GI50 (A549 NSCLC): 4.53 µM
TGI (A549 NSCLC): > 100 µM
GI50 (ACHN renal): 7.96 µM
TGI (ACHN renal): > 100 µM
GI50 (BT-549 breast): 13 µM
TGI (BT-549 breast): 74.3 µM
GI50 (CAKI-1 renal): 2800 nM
TGI (CAKI-1 renal): 16.6 µM
GI50 (CCRF-CEM leukemia): 3.67 µM
TGI (CCRF-CEM leukemia): 37.7 µM
GI50 (COLO 205 colon): 3.79 µM
TGI (COLO 205 colon): 15.2 µM
GI50 (DU-145 prostate): 3.35 µM
TGI (DU-145 prostate): 16.4 µM
GI50 (HCC-2998 colon): 15.9 µM
TGI (HCC-2998 colon): 65.1 µM
GI50 (HCT-116 colon): 4.27 µM
TGI (HCT-116 colon): 17 µM
GI50 (HCT-15 colon): 3.56 µM
TGI (HCT-15 colon): 48.8 µM
GI50 (HL-60(TB) leukemia): 2770 nM
TGI (HL-60(TB) leukemia): 8.47 µM
GI50 (HOP-62 NSCLC): 6.17 µM
TGI (HOP-62 NSCLC): > 100 µM
GI50 (HOP-92 NSCLC): 1660 nM
TGI (HOP-92 NSCLC): 26.2 µM
GI50 (HT29 colon): 4.08 µM
TGI (HT29 colon): 13 µM
GI50 (IGROV1 ovarian): 3.51 µM
TGI (IGROV1 ovarian): 29.3 µM
GI50 (K-562 leukemia): 2840 nM
TGI (K-562 leukemia): 31 µM
GI50 (KM12 colon): 3.86 µM
TGI (KM12 colon): 38.8 µM
GI50 (LOX IMVI melanoma): 7.21 µM
TGI (LOX IMVI melanoma): 22.9 µM
GI50 (M14 melanoma): 3.25 µM
TGI (M14 melanoma): > 100 µM
GI50 (MALME-3M melanoma): 2040 nM
TGI (MALME-3M melanoma): 6.93 µM
GI50 (MCF7 breast): 2480 nM
TGI (MCF7 breast): 64.5 µM
GI50 (MDA-MB-231 breast): 6.19 µM
TGI (MDA-MB-231 breast): 29.5 µM
GI50 (MOLT-4 leukemia): 5.04 µM
TGI (MOLT-4 leukemia): 30.5 µM
GI50 (NCI-H226 lung): 6.93 µM
TGI (NCI-H226 lung): > 100 µM
GI50 (NCI-H23 lung): 5.43 µM
TGI (NCI-H23 lung): 77.2 µM
GI50 (NCI-H460 lung): 3.76 µM
TGI (NCI-H460 lung): 19.4 µM
GI50 (NCI-H522 lung): 3.56 µM
TGI (NCI-H522 lung): 9.43 µM
GI50 (NCI/ADR-RES ovarian): 3.89 µM
TGI (NCI/ADR-RES ovarian): 35.8 µM
GI50 (OVCAR-3 ovarian): 3.26 µM
TGI (OVCAR-3 ovarian): 13.9 µM
GI50 (OVCAR-4 ovarian): 5.31 µM
TGI (OVCAR-4 ovarian): 77.6 µM
GI50 (OVCAR-5 ovarian): 16.7 µM
TGI (OVCAR-5 ovarian): > 100 µM
GI50 (OVCAR-8 ovarian): 5.7 µM
TGI (OVCAR-8 ovarian): 39.2 µM
GI50 (PC-3 prostate): 2280 nM
TGI (PC-3 prostate): 18.4 µM
GI50 (RPMI-8226 leukemia): 3.07 µM
TGI (RPMI-8226 leukemia): 12.2 µM
GI50 (RXF 393 renal): 2140 nM
TGI (RXF 393 renal): 6.05 µM
GI50 (SF-268 CNS): 9.25 µM
TGI (SF-268 CNS): > 100 µM
GI50 (SF-295 CNS): 2770 nM
TGI (SF-295 CNS): 9.5 µM
GI50 (SF-539 CNS): 2100 nM
TGI (SF-539 CNS): 6.02 µM
GI50 (SK-MEL-2 melanoma): 4.48 µM
TGI (SK-MEL-2 melanoma): 25.6 µM
GI50 (SK-MEL-28 melanoma): 7.48 µM
TGI (SK-MEL-28 melanoma): > 100 µM
GI50 (SK-MEL-5 melanoma): 3.2 µM
TGI (SK-MEL-5 melanoma): 14.1 µM
GI50 (SK-OV-3 ovarian): 4.44 µM
TGI (SK-OV-3 ovarian): 87.3 µM
GI50 (SN12C renal): 6.8 µM
TGI (SN12C renal): 51.2 µM
GI50 (SNB-19 CNS): 9.25 µM
TGI (SNB-19 CNS): > 100 µM
GI50 (SNB-75 CNS): 1350 nM
TGI (SNB-75 CNS): 6.91 µM
GI50 (SR leukemia): 2880 nM
TGI (SR leukemia): 19.5 µM
GI50 (SW-620 colon): 3.87 µM
TGI (SW-620 colon): 23.8 µM
GI50 (T-47D breast): 5.48 µM
TGI (T-47D breast): > 100 µM
GI50 (U251 CNS): 3.84 µM
TGI (U251 CNS): 19.2 µM
GI50 (UACC-257 melanoma): 5.98 µM
TGI (UACC-257 melanoma): > 100 µM
GI50 (UACC-62 melanoma): 5.38 µM
TGI (UACC-62 melanoma): 27.1 µM
GI50 (UO-31 renal): 4.46 µM
TGI (UO-31 renal): > 100 µM
